Data on 1 compound can be found in article PMC6069857, “Effects of novel HDAC inhibitors on urothelial carcinoma cells” (Clinical Epigenetics, 2018).

One series has as its system 639-V. Description: MTT viability assay (CC50). The series is classed as cell-based, human. The following applies: 72 h of incubation. The procedure: (§1) Further experiments were performed in VM-CUB1 and UM-UC-3 cells overexpressing HDAC4 (see below). Standard UCCs were obtained from the DSMZ (Braunschweig, Germany) and Dr. H.B. Grossmann HB (Houston, USA). For comparison, we investigated the spontaneously immortalized normal human bladder cell line HBLAK (provided by CELLnTEC, Bern, Switzerland) and the immortalized human embryonic kidney cell line HEK-293 (provided by Dr. V. Kolb-Bachofen, Duesseldorf, Germany). Cells were cultured and treated in DMEM GlutaMAX-I (Gibco, Darmstadt, Germany; UCCs and HEK-293) supplemented with 10% fetal calf serum (Biochrom, Berlin, Germany), except for HBLAK cultured in CnT-Prime Epithelial Culture Medium (CELLnTEC, Bern, Switzerland; HBLAK), at 37 °C and 5% CO2. STR (short tandem repeat) profiling via DNA fingerprint analysis was performed for all cell lines. Primary cultures of normal urothelial cells (UP) were established from healthy ureters removed during tumor nephrectomy and cultured as described. These cultures were used with informed consent of the patients and approval by the Ethics Committee of the Medical Faculty of the Heinrich-Heine-University, study number 1788. All inhibitors were dissolved in DMSO and stored as 10 mM stocks. […] The pan-HDACi inhibitor SAHA previously studied in detail was used for comparison. Solvent control cells were treated with equal amounts of DMSO.
(§2) For the determination of cellular mean cytotoxic concentration (CC50), UCCs, non-malignant control cells, and HDAC4-overexpressing clones were seeded in a 96-well format and treated once with a range of defined concentrations of the HDAC inhibitors. After 72 h, viability was quantified by NAD(P)H-dependent 3-(4,5-dimethylthiazol-2-yl)-2,5-diphenyltetrazolium bromide dye reduction assay (MTT, Sigma Aldrich, St. Louis, MO). CC50 values were estimated from three independent experiments by non-linear regression analysis (four-parameter logistic equation) using Prism 4.0 (Graph Pad) or Origin 8.0 (Origin Lab, Northhampton, GB). For time-dependent proliferation experiments, viability of untreated or inhibitor-treated cells was measured after 24, 48, and 72 h.
Background: Formazan colour is commonly taken as a measure of viable cells.

The test system of a further series is HBLAK. Description: MTT viability assay (CC50). In kind it is cell-based, human. The following applies: 72 h of incubation. The procedure: as §1, §2
A further series has as its system HEK-293. Description: MTT viability assay (CC50). The following applies: HEK-293, MTT, 72 h of incubation. The series is classed as cell-based, human. The procedure: as §1, §2
The subject of a further series is UM-UC-3. Description: MTT viability assay (CC50). The series is classed as cell-based, human. The conditions noted are these: UM-UC-3, MTT, 72 h of incubation. The procedure: as §1, §2
The subject of a further series is VM-CUB1. Description: MTT viability assay (CC50). The following applies: VM-CUB1, MTT, 72 h of incubation. The series is classed as cell-based, human. The procedure:
as §1, §2

The subject of series [1] is three UCCs (VM-CUB1, UM-UC-3, 639-V). The series can be described thus: High-content analysis-based fluorescent live/dead assay, three UCCs together. In kind it is cell-based, human. The following applies: HCA live/dead assay, 72 h. The procedure:
Live and dead cells were assayed by high-content analysis (HCA). […] After 72 h of treatment, cells were stained with a mixture of Hoechst 33342 (Sigma Aldrich, St. Louis, MO), calcein AM (Merck Millipore, Germany), and propidium iodide (Santa Cruz Biotechnology, Heidelberg) for cell nuclei, live and dead cells. The staining solution was replaced by PBS after 20 min. Images were acquired using ArrayScan XTI Live High Content Platform (Thermo Fisher Scientific Inc., USA) using excitation filters of 386, 485, and 560 nm for Hoechst 33342, calcein AM, and propidium iodide, respectively. The results were analyzed using HCS Studio Cellomics Scan (Thermo Fisher Scientific Inc., USA).

Another series relates to UCCs. Description: Western blot of acetylated α-tubulin and histones H3/H4. In kind it is cell-based, human. The following applies: 48 h, 19i 1 or 2 μM. As to the method:
Total protein extraction, purification of histones, and Western blot analysis were performed as previously described. Briefly, cells were incubated for 30 min on ice in RIPA-buffer (150 mM NaCl, 1% Triton X-100, 0.5% desoxycholate, 1% Nonidet P-40, 0.1% SDS, 1 mM EDTA, 50 mM TRIS (pH 7.6)) containing 10 μl/ml protease inhibitor cocktail (#P-8340, Sigma Aldrich, St. Louis, MO). Histones were extracted for detection of histone H3 and H4 acetylation by a modified published protocol employing sulfuric acid extraction and TCA-precipitation. Concentrations of total protein and histones were determined by BCA protein assay (Thermo Fisher Scientific, Carlsbad, CA). Subsequently, total cell proteins (15 μg) or extracted histones (2 μg) were separated by SDS-PAGE (total proteins 10–12% gels, histones 15% gels), transferred to PVDF membranes (Merck Millipore, Berlin, Germany), and were incubated with primary antibodies (at RT for 1 h or 4 °C overnight, see Additional file 3: Table S2) following blocking with 5% non-fat milk or BSA (bovine serum albumin) in TBST (150 mM NaCl, 10 mM TRIS, pH 7.4 and 0.1% Tween-20). For signal detection, membranes were incubated with a suitable horseradish peroxidase-conjugated secondary antibody (see Additional file 2: Table S1) at RT for 1 h and signals were visualized by SuperSignal™ West Femto (Thermo Fisher Scientific, Carlsbad, CA) and WesternBright Quantum kit (Biozym, Hessisch Oldendorf, Germany).
For orientation: Immunoblotting shows a protein as a band on a membrane.

The next series deals with T1, HDAC4 (Homo sapiens, UniProt P56524).
T1 construct: purchased Reaction Biology Corp. (Malvern, PA)
T1 sequence (P56524 whole entry): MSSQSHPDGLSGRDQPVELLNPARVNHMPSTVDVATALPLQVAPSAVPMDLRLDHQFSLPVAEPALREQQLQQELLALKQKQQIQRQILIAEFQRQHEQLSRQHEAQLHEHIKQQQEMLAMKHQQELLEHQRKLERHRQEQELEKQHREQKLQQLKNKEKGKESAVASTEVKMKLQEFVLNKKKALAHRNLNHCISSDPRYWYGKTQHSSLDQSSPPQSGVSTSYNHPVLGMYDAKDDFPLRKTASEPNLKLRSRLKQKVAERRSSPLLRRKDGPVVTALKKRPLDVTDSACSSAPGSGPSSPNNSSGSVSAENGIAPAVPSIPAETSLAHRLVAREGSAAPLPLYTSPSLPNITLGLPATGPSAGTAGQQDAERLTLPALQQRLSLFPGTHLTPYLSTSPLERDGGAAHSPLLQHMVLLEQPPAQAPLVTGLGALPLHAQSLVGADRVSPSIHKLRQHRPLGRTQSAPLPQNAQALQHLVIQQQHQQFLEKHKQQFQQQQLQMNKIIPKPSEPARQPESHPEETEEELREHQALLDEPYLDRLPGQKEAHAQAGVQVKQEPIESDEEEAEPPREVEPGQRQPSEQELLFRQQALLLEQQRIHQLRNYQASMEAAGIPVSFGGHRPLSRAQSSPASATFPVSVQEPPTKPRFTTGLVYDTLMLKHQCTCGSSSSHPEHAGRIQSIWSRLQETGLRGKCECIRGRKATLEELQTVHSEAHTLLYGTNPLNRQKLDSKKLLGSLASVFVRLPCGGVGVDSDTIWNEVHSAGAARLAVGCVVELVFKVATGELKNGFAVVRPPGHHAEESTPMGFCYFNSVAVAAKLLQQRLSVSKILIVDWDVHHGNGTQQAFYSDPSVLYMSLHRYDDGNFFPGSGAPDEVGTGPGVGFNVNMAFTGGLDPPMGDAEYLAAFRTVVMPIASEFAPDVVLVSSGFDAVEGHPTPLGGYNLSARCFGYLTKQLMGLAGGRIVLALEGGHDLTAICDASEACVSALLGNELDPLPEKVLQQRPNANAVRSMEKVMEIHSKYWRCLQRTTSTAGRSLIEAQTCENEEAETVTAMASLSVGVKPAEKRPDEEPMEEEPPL
The conditions noted are these: older assays, given for HDAC4/5 together; cited from earlier work.

Another series deals with T2, HDAC5 (Homo sapiens, UniProt Q9UQL6).
T2 construct: purchased Reaction Biology Corp. (Malvern, PA)
T2 sequence (Q9UQL6 whole entry): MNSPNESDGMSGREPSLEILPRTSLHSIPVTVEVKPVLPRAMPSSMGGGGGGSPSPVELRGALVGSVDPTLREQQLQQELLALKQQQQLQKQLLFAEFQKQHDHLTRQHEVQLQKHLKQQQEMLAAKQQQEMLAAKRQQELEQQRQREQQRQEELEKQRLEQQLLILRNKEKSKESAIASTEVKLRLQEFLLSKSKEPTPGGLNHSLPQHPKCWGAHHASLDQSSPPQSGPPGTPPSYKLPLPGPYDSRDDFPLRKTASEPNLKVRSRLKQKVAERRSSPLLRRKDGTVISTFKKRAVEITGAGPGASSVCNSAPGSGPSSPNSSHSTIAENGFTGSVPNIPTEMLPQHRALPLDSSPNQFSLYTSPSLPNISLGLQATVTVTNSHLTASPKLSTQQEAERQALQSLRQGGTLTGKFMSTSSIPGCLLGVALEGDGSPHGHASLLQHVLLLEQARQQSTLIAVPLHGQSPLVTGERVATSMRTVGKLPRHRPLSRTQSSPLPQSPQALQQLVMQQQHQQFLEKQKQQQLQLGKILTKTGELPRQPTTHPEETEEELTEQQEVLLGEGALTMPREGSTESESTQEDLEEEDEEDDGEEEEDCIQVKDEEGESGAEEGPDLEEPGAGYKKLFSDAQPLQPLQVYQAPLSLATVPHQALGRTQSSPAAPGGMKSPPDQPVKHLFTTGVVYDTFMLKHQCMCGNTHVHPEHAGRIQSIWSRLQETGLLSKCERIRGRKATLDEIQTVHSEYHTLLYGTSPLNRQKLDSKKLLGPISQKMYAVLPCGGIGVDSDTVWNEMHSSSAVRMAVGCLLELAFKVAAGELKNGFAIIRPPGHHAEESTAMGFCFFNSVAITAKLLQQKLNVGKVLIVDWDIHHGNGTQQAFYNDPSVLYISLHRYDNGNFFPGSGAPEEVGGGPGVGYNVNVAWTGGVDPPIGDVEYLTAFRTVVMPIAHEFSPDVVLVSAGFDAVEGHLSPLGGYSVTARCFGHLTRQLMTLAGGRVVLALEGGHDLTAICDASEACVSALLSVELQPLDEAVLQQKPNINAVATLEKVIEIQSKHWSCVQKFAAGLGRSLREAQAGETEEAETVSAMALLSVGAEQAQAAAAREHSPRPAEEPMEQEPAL
The conditions noted are these: older assays, given for HDAC4/5 together; cited from earlier work.

The next series has as its target HDAC1 (Homo sapiens, UniProt Q13547). Also noted: purchased Reaction Biology Corp. (Malvern, PA). The conditions noted are these: previously reported; given for HDAC1/2 together; cited from earlier work.
Series [2] has as its target T3, HDAC6 (Homo sapiens, UniProt Q9UBN7). Also on record: purchased Reaction Biology Corp. (Malvern, PA). The following applies: previously reported; cited from earlier work.
The next series addresses HDAC3 (Homo sapiens, UniProt O15379). Description: In vitro fluorescence-based HDAC inhibition assay (Reaction Biology). The following applies: read-out: IC50 HDAC3; experiment performed once.
Series [3] concerns the target T3, HDAC6. Described as above. The following applies: read-out: IC50 HDAC6; experiment performed once.
The target in the next series is HDAC9 (Homo sapiens, UniProt Q9UKV0). The series is described as above. The following applies: read-out: IC50 HDAC9; experiment performed once.
Sequence of HDAC9 (Q9UKV0 whole entry): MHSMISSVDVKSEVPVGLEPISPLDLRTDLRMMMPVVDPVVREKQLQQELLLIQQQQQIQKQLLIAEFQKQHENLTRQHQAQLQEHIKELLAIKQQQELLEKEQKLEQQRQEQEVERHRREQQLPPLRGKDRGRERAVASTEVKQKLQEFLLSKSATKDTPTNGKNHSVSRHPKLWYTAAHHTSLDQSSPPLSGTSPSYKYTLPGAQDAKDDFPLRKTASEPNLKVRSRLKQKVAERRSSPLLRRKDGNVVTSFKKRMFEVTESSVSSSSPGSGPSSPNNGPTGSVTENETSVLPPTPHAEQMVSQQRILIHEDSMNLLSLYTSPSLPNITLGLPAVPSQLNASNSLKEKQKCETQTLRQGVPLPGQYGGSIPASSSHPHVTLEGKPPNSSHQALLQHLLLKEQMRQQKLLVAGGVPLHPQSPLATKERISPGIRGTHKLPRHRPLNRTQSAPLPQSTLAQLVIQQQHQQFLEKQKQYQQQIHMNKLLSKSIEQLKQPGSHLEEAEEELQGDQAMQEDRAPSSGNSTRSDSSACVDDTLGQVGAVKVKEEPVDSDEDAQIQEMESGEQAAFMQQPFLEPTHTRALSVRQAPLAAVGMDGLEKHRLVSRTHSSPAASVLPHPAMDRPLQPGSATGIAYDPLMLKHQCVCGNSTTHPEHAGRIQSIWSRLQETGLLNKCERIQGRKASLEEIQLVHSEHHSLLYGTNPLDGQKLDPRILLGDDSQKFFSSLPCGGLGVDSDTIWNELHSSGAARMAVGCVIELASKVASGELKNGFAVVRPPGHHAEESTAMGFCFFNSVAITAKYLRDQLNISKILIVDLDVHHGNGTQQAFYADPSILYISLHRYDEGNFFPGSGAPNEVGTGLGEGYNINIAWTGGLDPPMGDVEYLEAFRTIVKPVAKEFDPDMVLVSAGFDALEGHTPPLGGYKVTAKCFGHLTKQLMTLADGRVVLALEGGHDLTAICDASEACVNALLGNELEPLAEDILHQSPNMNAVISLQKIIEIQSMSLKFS

T3 sequence (Q9UBN7 whole entry): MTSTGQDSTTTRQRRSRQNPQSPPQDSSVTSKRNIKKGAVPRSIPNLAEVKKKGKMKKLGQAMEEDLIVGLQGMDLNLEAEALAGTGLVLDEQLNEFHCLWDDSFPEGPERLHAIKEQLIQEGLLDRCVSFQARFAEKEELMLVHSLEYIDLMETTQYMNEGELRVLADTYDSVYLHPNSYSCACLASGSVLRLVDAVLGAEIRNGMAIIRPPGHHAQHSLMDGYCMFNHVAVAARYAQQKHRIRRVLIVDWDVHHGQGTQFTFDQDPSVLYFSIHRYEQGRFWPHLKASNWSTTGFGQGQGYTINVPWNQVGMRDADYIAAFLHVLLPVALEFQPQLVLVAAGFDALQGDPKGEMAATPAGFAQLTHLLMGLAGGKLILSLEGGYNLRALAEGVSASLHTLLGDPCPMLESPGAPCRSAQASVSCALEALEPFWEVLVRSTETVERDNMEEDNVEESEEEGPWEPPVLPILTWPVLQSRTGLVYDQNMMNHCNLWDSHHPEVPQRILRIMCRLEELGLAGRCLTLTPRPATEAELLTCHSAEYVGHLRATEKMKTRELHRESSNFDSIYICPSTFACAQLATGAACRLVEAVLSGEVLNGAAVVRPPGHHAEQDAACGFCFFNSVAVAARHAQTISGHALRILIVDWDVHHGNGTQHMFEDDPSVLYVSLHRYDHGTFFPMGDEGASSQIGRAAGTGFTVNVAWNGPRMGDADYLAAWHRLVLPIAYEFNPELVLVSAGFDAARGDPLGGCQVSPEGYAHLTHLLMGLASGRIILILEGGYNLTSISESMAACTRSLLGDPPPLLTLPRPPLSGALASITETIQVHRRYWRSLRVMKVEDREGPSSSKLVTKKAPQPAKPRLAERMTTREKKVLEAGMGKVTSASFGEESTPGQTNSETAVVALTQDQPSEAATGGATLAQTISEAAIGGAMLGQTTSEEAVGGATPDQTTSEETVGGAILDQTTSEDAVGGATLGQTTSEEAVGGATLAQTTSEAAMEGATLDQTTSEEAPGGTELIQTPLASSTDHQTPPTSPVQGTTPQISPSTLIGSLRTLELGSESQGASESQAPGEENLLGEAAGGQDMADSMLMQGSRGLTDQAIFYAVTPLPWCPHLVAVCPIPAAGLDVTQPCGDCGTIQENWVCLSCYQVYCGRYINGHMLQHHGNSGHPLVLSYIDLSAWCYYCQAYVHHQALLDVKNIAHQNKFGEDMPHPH
Sequence of HDAC1 (Q13547 whole entry): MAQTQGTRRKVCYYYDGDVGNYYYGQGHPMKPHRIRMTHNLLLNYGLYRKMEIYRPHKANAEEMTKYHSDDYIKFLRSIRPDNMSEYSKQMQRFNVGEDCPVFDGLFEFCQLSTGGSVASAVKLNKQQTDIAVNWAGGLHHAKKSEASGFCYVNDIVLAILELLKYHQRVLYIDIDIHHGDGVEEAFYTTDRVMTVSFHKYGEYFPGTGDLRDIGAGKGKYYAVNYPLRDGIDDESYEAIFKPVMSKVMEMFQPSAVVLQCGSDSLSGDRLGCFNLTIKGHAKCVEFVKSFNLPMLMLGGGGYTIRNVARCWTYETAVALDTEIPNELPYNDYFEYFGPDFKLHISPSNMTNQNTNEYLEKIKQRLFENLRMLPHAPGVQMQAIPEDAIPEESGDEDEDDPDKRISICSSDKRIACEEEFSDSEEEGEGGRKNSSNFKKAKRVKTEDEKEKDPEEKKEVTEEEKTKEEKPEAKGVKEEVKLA

Usually CC50 stands for the concentration that lowers cell viability or growth by half. High values mean lower toxicity to the cells, low ones greater toxicity to the cells. For orientation: IC50 means the midpoint of a concentration-inhibition curve. As for `Cc1cc(C)cc(C(=O)NOCCCCCC(=O)NO)c1` [19i], the CC50 was 1030 nM with 639-V; over 5 µM in the series on HBLAK; 610 nM with HEK-293; 820 nM with UM-UC-3; 970 nM with VM-CUB1; under 1000 nM in [1]. Besides, in the series with UCCs, the “global acetylation of histones H3 and H4” value is given as “enhanced”. Further, the “acetylation of α-tubulin” value with UCCs (SAHA 2.5 μM) is “strongly induced”. In addition, at HDAC4, the “in vitro IC50 HDAC4” value is “nanomolar range”. On HDAC5, the “in vitro IC50 HDAC5” value is listed as “nanomolar range”. Further, the “in vitro IC50 HDAC1” value at HDAC1 was “sub-micromolar”. For the same compound, the “in vitro IC50 HDAC6” value at HDAC6 [2] is “sub-micromolar”. The figures for the IC50 on HDAC3, at HDAC6 [3] and on HDAC9 were 236 nM, 32 nM and 198 µM, respectively.
